Data taken from patent publication US11248254B2, “Method and system employing distinguishable polymerases for detecting ternary complexes and identifying cognate nucleotides” (Omniome, Inc., priority 2016, dated 2022).

Experiments:
Assay type in all cases: binding
[1] = molecular target: T1, ternary complex of primed template nucleic acid, Bst DNA polymerase large fragment and cognate nucleotide (Geobacillus stearothermophilus, UniProt P52026); assay: Biolayer interferometry: formation and retention of ternary complexes with different non-catalytic metal ions; conditions: 2 mM test metal ion; for binding signal when ternary complexes formed on primed template nucleic acid: 100 μM correct nucleotide, 200 nM Bst polymerase, 60 s binding (FIG. 2); for ternary complex decay / stability following washing: wash without polymerase, 10 μM correct dNTP, 100 μM incorrect dNTP, 300 s (FIG. 2); for ternary complex binding signal following a wash step, expressed as a percentage of the maximum signal: wash in absence of non-bound polymerase, baseline = signal at initial nucleotide contact
T1 construct: 200 nM unlabeled Bst DNA polymerase large fragment
T1 sequence (P52026 289-876 limits assumed): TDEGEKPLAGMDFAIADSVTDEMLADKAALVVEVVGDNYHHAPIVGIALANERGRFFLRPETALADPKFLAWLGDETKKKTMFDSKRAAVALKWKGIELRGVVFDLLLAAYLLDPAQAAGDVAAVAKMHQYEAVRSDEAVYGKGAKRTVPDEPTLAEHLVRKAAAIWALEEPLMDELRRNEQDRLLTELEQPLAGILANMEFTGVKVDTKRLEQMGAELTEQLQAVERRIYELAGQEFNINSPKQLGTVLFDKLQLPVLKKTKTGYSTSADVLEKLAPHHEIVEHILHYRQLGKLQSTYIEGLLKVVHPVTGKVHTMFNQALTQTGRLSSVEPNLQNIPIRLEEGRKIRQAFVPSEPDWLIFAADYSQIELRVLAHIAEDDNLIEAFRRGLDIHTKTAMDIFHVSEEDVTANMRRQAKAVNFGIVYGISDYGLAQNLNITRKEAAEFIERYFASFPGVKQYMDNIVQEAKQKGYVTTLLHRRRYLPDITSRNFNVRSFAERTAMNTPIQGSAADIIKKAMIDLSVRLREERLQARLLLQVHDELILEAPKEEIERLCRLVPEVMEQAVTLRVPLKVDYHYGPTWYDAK
From the text: A FORTEBIO® (Menlo Park, Calif.) Octet instrument employing biolayer interferometry to measure binding reactions at the surface of a fiber optic tip was used in a multiwell plate format to assess formation and stability of ternary complexes in the presence of different non-catalytic metal ions. Template nucleic acid strands biotinylated at their 5′-ends were used to immobilize the primed template nucleic acid onto fiber optic tips functionalized with streptavidin (SA) according to standard procedures. Tips were washed in a Tris-buffered solution containing 200 mM KCl, 160 mM potassium glutamate, and 0.01% Tween-20 before commencing the cycling protocol. Binding reactions conducted using 2 mM of the test metal ion (i.e., 2 mM of the metal salt) were carried out in serial fashion using examination buffers that contained Tris-HCl (pH 8.0), 220 mM KCl, 160 mM potassium glutamate, 0.01% Tween-20, 1 mM β-mercaptoethanol, 100 μg/ml BSA, the correct nucleotide at a concentration of 100 μM, and 200 nM unlabeled Bst DNA polymerase large fragment. Salts used in the testing procedure included: SrCl2, Na3VO4, EuCl3, and CuSO4. Examination buffers in this procedure were supplemented with DMSO and betaine to control DNA secondary structure. Binding steps were carried out for 60 seconds, and were followed by wash steps using a buffer that omitted polymerase, but included 10 μM of the correct dNTP, 100 μM of the incorrect dNTP, and 2 mM of the test metal ion. Retention of the ternary complex was measured over the course of 300 seconds. Surviving ternary complexes were stripped from the primed template by exposure to a solution containing 30 mM Tris-HCl (pH 8.0), 1 M NaCl, 4 mM EDTA, 4 mM DTPA, 0.2% SDS, 0.05% Tween-20, and 3% Tween-80 for a period of 30 seconds. This was followed by exposure to a regeneration solution made Tris-HCl (pH 8.0), 220 mM KCl, 160 mM potassium glutamate, 0.01% Tween-20, 1 mM β-mercaptoethanol, 100 μg/ml BSA for 20 seconds before commencing binding of polymerase and cognate nucleotide in the presence of the next test metal ion.

[2] = molecular target: T2, Bsu DNA polymerase large fragment with primed template nucleic acid (Bacillus subtilis, UniProt O34996); assay: Biolayer interferometry: discrimination between ternary (cognate dCTP) and binary (non-cognate dGTP) complex formation, KCl titration; conditions: 2 mM stabilizing cation, KCl 100-650 mM, potassium glutamate 80-640 mM (FIGS. 3, 4)
T2 construct: 350 U/ml Bsu DNA polymerase large fragment
T2 sequence (O34996 297-880 limits assumed): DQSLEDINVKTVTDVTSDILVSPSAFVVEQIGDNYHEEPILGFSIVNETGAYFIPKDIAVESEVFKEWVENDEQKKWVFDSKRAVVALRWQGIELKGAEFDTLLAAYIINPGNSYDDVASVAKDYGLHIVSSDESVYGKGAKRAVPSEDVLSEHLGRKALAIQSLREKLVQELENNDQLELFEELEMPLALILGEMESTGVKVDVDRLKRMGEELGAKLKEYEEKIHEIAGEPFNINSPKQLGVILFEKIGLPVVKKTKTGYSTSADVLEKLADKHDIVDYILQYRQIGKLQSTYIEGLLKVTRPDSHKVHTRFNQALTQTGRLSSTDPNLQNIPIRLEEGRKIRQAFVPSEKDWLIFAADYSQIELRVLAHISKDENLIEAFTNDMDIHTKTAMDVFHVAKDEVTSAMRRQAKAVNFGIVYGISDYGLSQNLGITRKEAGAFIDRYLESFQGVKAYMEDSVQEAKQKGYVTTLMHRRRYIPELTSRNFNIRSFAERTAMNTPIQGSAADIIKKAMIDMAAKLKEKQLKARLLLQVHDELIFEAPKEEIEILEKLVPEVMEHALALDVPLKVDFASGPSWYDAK
From the text: Materials and methods used in the procedure were as follows. The FORTEBIO® OCTET® instrument employing biolayer interferometry was used to measure binding reactions at the surface of a fiber optic tip in a multiwell plate format to investigate differential formation of binary and ternary complexes. Template strands biotinylated at their 5′-ends were used to immobilize the primed template nucleic acid onto fiber optic tips functionalized with streptavidin (SA) according to standard procedures. The next correct nucleotide for the biotinylated template DNA was dCTP (with dGTP being used as the model incorrect nucleotide). Tips were first equilibrated in a Tris-buffered solution containing 30 mM Tris-HCl (pH 8.0), and 0.1 mM EDTA before commencing the cycling protocol. […] When using a single contacting step to effect binding of polymerase and nucleotide to the primed template nucleic acid, the binding step was 60 seconds long, with binding interactions being monitored continuously. […] Results from interferometry monitoring were analyzed to identify formation of ternary complexes (i.e., identifying cognate nucleotide) or binary complexes (i.e., identifying non-cognate nucleotide).

[3] = test system: tested polymerases with primed template nucleic acid; assay: Discrimination between correct and incorrect nucleotides at higher metal cation concentration; conditions: cation greater than about 5 mM; 150 mM to 300 mM monovalent metal cations

O=S(=O)([O-])[O-].[Cu+2] [Cu^2+, CuSO4]
binding signal when ternary complexes formed on primed template nucleic acid [1]: moderately high binding signals | ternary complex decay / stability following washing [1]: rapid decay

[Cl][Eu]([Cl])[Cl] [Eu^3+, EuCl3]
binding signal when ternary complexes formed on primed template nucleic acid [1]: high binding signals | ternary complex binding signal following a wash step, expressed as a percentage of the maximum signal [1]: about 80% | ternary complex decay / stability following washing [1]: substantially more stable | discrimination between ternary and binary complex formation [2]: good discrimination between ternary and binary complex formation was achievable | ability of polymerase to discriminate between correct and incorrect nucleotides [3]: reduced abilities to discriminate between correct and incorrect nucleotides

[Ni+2] [Ni^2+]
ability of polymerase to discriminate between correct and incorrect nucleotides [3]: This was not the case

[Cl-].[Cl-].[Sr+2] [Sr^2+, SrCl2]
binding signal when ternary complexes formed on primed template nucleic acid [1]: high binding signals | ternary complex binding signal following a wash step, expressed as a percentage of the maximum signal [1]: about 40% | ternary complex decay / stability following washing [1]: slower than observed with V^5+ and Cu^2+ ions | ability of polymerase to discriminate between correct and incorrect nucleotides [3]: This was not the case

[Tb+3] [Tb^3+]
ternary complex binding signal following a wash step, expressed as a percentage of the maximum signal [1]: substantially similar to trials conducted using Eu^3+ cations | ternary complex decay / stability following washing [1]: substantially similar to the use of Eu^3+ ions | discrimination between ternary and binary complex formation [2]: good discrimination between ternary and binary complex formation was achievable | ability of polymerase to discriminate between correct and incorrect nucleotides [3]: reduced abilities to discriminate between correct and incorrect nucleotides

[Na+].[Na+].[Na+].[O]=[V]([O-])([O-])[O-] [V^5+, Na3VO4]
binding signal when ternary complexes formed on primed template nucleic acid [1]: moderately high binding signals | ternary complex decay / stability following washing [1]: rapid decay
